Test results taken from patent US7414066B2, “Amide compounds and medications containing the same technical field” (Kowa Company Ltd., priority 1999, dated 2008).
pIC50: −log10 of the molar value.

Tests used:
[1] = target: ACAT (microsome from the breast aorta of a rabbit) (Oryctolagus cuniculus, UniProt G1SUQ0); experiment: ACAT inhibitory activity, microsome from rabbit breast aorta (blood vessel wall enzyme); assay type: biochemical; details: microsome from breast aorta of cholesterol-fed rabbit
Protocol: (§1) A microsome was prepared from the breast aorta of a rabbit which had been fed with 1% cholesterol food for 8 weeks in a usual manner, and suspended in a 0.15 M phosphate buffer solution (pH 7.4) to form an enzyme solution. An enzyme solution derived from the small intestine was prepared from the small intestine of a rabbit that had eaten a normal food.
(§2) To this solution were added 10 μl of the enzyme solution, and the mixture was reacted at 37° C. for 5 minutes (for 3 minutes in the case of the small intestine). Then, 3 ml of a chloroform/methanol (2/1) mixture and 0.5 ml of 0.04 N hydrochloric acid were added thereto to stop the reaction. The lipid was then extracted. The solvent layer was concentrated to dryness, and dissolved in hexane. The solution was spotted on a TLC plate(supplied by Merck Co.). The elution was conducted with a hexane:ether:acetic acid (75:25:1) mixture.
(§3) The radioactivity of the resulting cholesterol ester fraction was measured using BAS 2000 (supplied by Fuji Photo Film Co., Ltd.). An IC50 value was obtained from the calculation in contrast with a control containing only DMSO.

[2] = target: T1, ACAT (enzyme solution derived from the small intestine of a rabbit); experiment: ACAT inhibitory activity, enzyme solution from rabbit small intestine; assay type: biochemical; details: B‡: the small intestine
T1 construct: An enzyme solution derived from the small intestine was prepared from the small intestine of a rabbit that had eaten a normal food
Protocol: as §1, §2, §3

J774 cells = experiment: ACAT inhibitory activity (anti-foamation activity) in J774 cells; assay type: cell-based; details: for pIC50: Mus musculus, J774 cells, 25-OH cholesterol 10 μg/ml, 18 hours, read-out: Enzyme (J774) IC50; for IC50 (HepG2)/IC50 (J774): ratio HepG2 / J774
Protocol: (§4) J774 cells or HepG2 cells were spread on a 24-well plate. The cells were incubated in a 5% CO2 incubator at 37° C. for 24 hours using DMEM in the case of the J774 cells and a MEM culture solution in the case of the HepG2 cells (both containing 10% fetal calf serum).
(§5) The medium was removed, and the residue was washed twice with PBS, then extracted with 1.5 ml of a hexane:isopropanol (3:2) mixture, and concentrated to dryness. The extract was dissolved in 0.2 ml of isopropanol containing 10% Triton X-100. Total cholesterol (TC) and free cholesterol (FC) were measured using Cholesterol E Test Wako (supplied by Wako Pure Chemical Industries, Ltd.) and Free Cholesterol E Test Wako (supplied by Wako Pure Chemical Industries, Ltd.).
(§6) The cell extract residue was solubilized in 0.25 ml of 2N NaOH at 37° C. for 30 minutes, and the protein amount was measured using BCA Protein Assay Reagent (Pierce).
(§7) The amount of cholesterol based on the protein was calculated from the difference between TC and FC, and an IC50 value was obtained from the calculation in contrast with the control.

HepG2 cells = experiment: ACAT inhibitory activity (anti-foamation activity) in HepG2 cells; assay type: cell-based; details: Homo sapiens, 25-OH cholesterol 10 μg/ml, 18 hours, read-out: Enzyme (HepG2) IC50
Protocol: as §4, §5, §6, §7

Sequence of ACAT (microsome from the breast aorta of a rabbit) (G1SUQ0 entry or part of it): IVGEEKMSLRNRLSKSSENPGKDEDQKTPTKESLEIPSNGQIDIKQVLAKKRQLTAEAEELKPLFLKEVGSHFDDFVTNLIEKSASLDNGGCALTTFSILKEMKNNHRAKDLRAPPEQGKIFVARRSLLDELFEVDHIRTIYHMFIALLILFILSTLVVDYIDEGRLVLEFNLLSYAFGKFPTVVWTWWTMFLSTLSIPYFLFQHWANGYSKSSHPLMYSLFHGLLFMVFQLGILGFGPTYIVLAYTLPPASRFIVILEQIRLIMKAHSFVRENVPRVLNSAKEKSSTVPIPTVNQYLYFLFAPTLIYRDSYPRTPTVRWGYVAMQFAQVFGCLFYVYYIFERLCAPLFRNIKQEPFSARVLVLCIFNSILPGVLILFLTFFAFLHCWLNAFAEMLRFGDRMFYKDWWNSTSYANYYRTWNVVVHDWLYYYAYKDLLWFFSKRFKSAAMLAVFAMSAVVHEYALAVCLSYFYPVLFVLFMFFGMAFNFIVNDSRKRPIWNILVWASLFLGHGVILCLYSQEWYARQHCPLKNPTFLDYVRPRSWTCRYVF

melting point | Compound | further results
76 to 78 °C | Cc1cc(SC(C)C)c(NC(=O)CCCCCCSc2nc3cccc(C(F)(F)F)c3o2)c(SC(C)C)n1 [Compound No. 1292, 7-(7-trifluoromethylbenzoxazol-2-ylthio)-N-[2,4-bis(isopropylthio)-6-methyl-3-pyridyl]heptanamide] | pIC50 (J774 cells): 8.57; IC50 (HepG2)/IC50 (J774) (J774 cells): 11.1; pIC50 (HepG2 cells): 7.52
97 to 98 °C | Cc1cc(SC(C)C)c(NC(=O)CCCCCCCCSc2nc3cccc(C(F)(F)F)c3o2)c(SC(C)C)n1 [Compound No. 1294, 9-(7-trifluoromethylbenzoxazol-2-ylthio)-N-[2,4-bis(isopropylthio)-6-methyl-3-pyridyl]nonanamide] | pIC50 (J774 cells): 8.38; IC50 (HepG2)/IC50 (J774) (J774 cells): 0.6; pIC50 (HepG2 cells): 8.62
102 to 103 °C | Cc1cc(SC(C)C)c(NC(=O)CCCCCSc2nc3cccc(C(F)(F)F)c3o2)c(SC(C)C)n1 [Compound No. 1291, 6-(7-trifluoromethylbenzoxazol-2-ylthio)-N-[2,4-bis(isopropylthio)-6-methyl-3-pyridyl]hexanamide] | 
137 to 139 °C | CSc1cc(C)nc(SC)c1NC(=O)CCCCCCSc1nc2ccccc2o1 [Compound No. 786, 7-(benzoxazol-2-ylthio)-N-[2,4-bis(methylthio)-6-methyl-3-pyridyl]heptanamide] | 
128 to 129 °C | Cc1cc(SC(C)C)c(NC(=O)CCCSc2nc3ccccc3o2)c(SC(C)C)n1 [compound 843, 4-(benzoxazol-2-ylthio)-N-[2,4-bis(isopropylthio)-6-methyl-3-pyridyl]butanamide] | 
122 to 123 °C | CCSc1cc(C)nc(SCC)c1NC(=O)CCCCSc1nc2ccccc2o1 [Compound No. 814, 5-(benzoxazol-2-ylthio)-N-[2,4-bis(ethylthio)-6-methyl-3-pyridyl]pentanamide] | 
112 to 114 °C | Cc1cc(SC(C)C)c(NC(=O)CCCCCCCCSc2nc3ccccc3[nH]2)c(SC(C)C)n1 [Compound No. 868, 9-(benzimidazol-2-ylthio)-N-[2,4-bis(isopropylthio)-6-methyl-3-pyridyl]nonanamide] | 
103 to 105 °C | CCSc1cc(C)nc(SCC)c1NC(=O)CCCCCCSc1nc2ccccc2o1 [Compound No. 816, 7-(benzoxazol-2-ylthio)-N-[2,4-bis(ethylthio)-6-methyl-3-pyridyl]heptanamide] | 
76 to 78 °C | Cc1cc(SC(C)C)c(NC(=O)CCCCCCSc2nc3ccccc3o2)c(SC(C)C)n1 [Compound No. 846, 7-(benzoxazol-2-ylthio)-N-[2,4-bis(isopropylthio)-6-methyl-3-pyridyl]heptanamide] | 
118 to 120 °C | Cc1cc(SC(C)C)c(NC(=O)CCCCSc2nc3cccc(C(F)(F)F)c3o2)c(SC(C)C)n1 [Compound No. 1290, 5-(7-trifluoromethylbenzoxazol-2-ylthio)-N-[2,4-bis(isopropylthio)-6-methyl-3-pyridyl]pentanamide] | 

The next lines start with the compound.

Compound | melting point | further results
CCCCCCCCCN(CC(C)(C)C)C(=O)N[C@H]1CCCC[C@@H]1OC(=O)CCNC(=O)C1OC(C)(C)OCC1(C)C (stereo partly drawn) [Control 3, N-(2,2,5,5-tetramethyl-1,3-dioxan-4-ylcarbonyl)-β-alanine 2 (S)-[N′-(2,2-dimethylpropyl)-N′-nonylureido]-1(S)-cyclohexyl ester] |  | pIC50 [1]: 7.47; pIC50 [2]: 7.25; pIC50 (J774 cells): 6.49
CC(C)c1cccc(C(C)C)c1NC(=O)CCCCCSc1nc2ccccc2o1 [Control 5, 6-(benzoxazol-2-ylthio)-N-(2,6-diisopropylphenyl)hexanamide, reference compound] |  | pIC50 [2]: 7.19; pIC50 (J774 cells): 5.72
CC(C)c1cccc(C(C)C)c1NC(=O)C(C)(C)CCCOc1ccc2c(c1)C=C(c1nccn1C)C(CCc1ccc(F)cc1)O2 (stereo not shown) [Control 1, 5-[2-(2-(4-fluorophenyl)ethyl)-3-(1-methyl-1H-imidazol-2-yl)-2H-1-benzopyran-6-yl]oxy-2,2-dimethyl-N-(2,6-diisopropylphenyl)pentanamide, reference compound] |  | pIC50 [2]: 6.06; pIC50 (J774 cells): 6.25
CSc1cc(C)nc(SC)c1NC(=O)CSc1nc2ccccc2o1 [compound 781, 2-(benzoxazol-2-ylthio)-N-[2,4-bis(methylthio)-6-methyl-3-pyridyl]acetamide] | 203 to 205 °C | 
CSc1cc(C)nc(SC)c1NC(=O)CCCCSc1nc2ccccc2[nH]1 [Compound No. 804, 5-(benzimidazol-2-ylthio)-N-[2,4-bis(methylthio)-6-methyl-3-pyridyl]pentanamide] | 176 to 177 °C | 
CSc1nc(C)ccc1NC(=O)CSc1nc2ccccc2[nH]1 [Compound No. 471, 2-(benzimidazol-2-ylthio)-N-(6-methyl-2-methylthio-3-pyridyl)acetamide] | 192 to 193 °C (dec.) | 
Cc1cc(SC(C)C)c(NC(=O)CSc2nc3ccccc3s2)c(SC(C)C)n1 [Compound No. 851, 2-(benzothiazol-2-ylthio)-N-[2,4-bis(isopropylthio)-6-methyl-3-pyridyl]acetamide] | 117 to 118 °C | 
CSc1nccc(C)c1NC(=O)CCCCCCCCSc1nc2ccccc2o1 [compound 158, 9-(benzoxazol-2-ylthio)-N-(4-methyl-2-methylthio-3-pyridyl)nonanamide] | 91 to 92 °C | 
CSc1ncccc1NC(=O)CCCCCCCCSc1nc2ccccc2s1 [compound 18, 9-(benzothiazol-2-ylthio)-N-(2-methylthio-3-pyridyl)nonanamide] | 107 to 108 °C | 
CSc1nc(C)ccc1NC(=O)CSc1nc2ccccc2s1 [Compound No. 461, 2-(benzothiazol-2-ylthio)-N-(6-methyl-2-methylthio-3-pyridyl)acetamide] | 175 to 176 °C | 
CSc1cc(C)nc(SC)c1NC(=O)CCCCCSc1nc2ccccc2[nH]1 [compound 805, 6-(benzimidazol-2-ylthio)-N-[2,4-bis(methylthio)-6-methyl-3-pyridyl]hexanamide] | 139 to 141 °C | 
Cc1cc(SC(C)C)c(NC(=O)CCCCCSc2nc3c(C)c(Cl)cc(C(C)C)c3o2)c(SC(C)C)n1 [Compound No. 1301, 6-(5-chloro-7-isopropyl-4-methylbenzoxazol-2-ylthio)-N-[2,4-bis(isopropylthio)-6-methyl-3-pyridyl]hexanamide] | 99 to 101 °C | 
CCCCCCCN(CCCCCSc1nc(-c2ccccc2)c(-c2ccccc2)[nH]1)c1nc2ccccc2o1 [Control 4, [5-(4,5-diphenyl-1H-imidazol-2-ylthio)pentyl]-N-heptyl-2-benzoxazolamie, reference compound] |  | pIC50 [2]: 7.43; pIC50 (J774 cells): 6.92
